Data as given in the supplement of paper PMC10307832.

Assays:
Test in all cases: relative viability (nuclei count vs DMSO), 5 days (fraction); higher = more cells survive
KN-93 + Palbociclib = compound: CN(C/C=C/C1=CC=C(C=C1)Cl)CC2=CC=CC=C2N(CCO)S(=O)(=O)C3=CC=C(C=C3)OC [KN-93] + CC(=O)c1c(C)c2cnc(Nc3ccc(N4CCNCC4)cn3)nc2n(C2CCCC2)c1=O [Palbociclib] (partner 0.5 µM)
Summary of the method: (§1)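 Medians of duplicate plates are given as relative viability. That measure is the nuclei count in treated wells divided by the count in vehicle wells. Counts were taken on 4× images of lung cancer cell lines in 1536-well plates, 5 days after pin-tool dosing the day after seeding with one drug alone or a fixed anchor-drug dose plus five library-drug doses (not always all listed) in √10 steps.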

KN-93 + Foretinib = compound: CN(C/C=C/C1=CC=C(C=C1)Cl)CC2=CC=CC=C2N(CCO)S(=O)(=O)C3=CC=C(C=C3)OC [KN-93] + COc1cc2c(Oc3ccc(NC(=O)C4(C(=O)Nc5ccc(F)cc5)CC4)cc3F)ccnc2cc1OCCCN1CCOCC1 [Foretinib] (partner 0.25 µM)
Summary of the method: as §1

KN-93 + Pemetrexed = compound: CN(C/C=C/C1=CC=C(C=C1)Cl)CC2=CC=CC=C2N(CCO)S(=O)(=O)C3=CC=C(C=C3)OC [KN-93] + Nc1nc2[nH]cc(CCc3ccc(C(=O)N[C@@H](CCC(=O)O)C(=O)O)cc3)c2c(=O)[nH]1 [Pemetrexed] (partner 0.2 µM)
Summary of the method: as §1

KN-93 + Decitabine = compound: CN(C/C=C/C1=CC=C(C=C1)Cl)CC2=CC=CC=C2N(CCO)S(=O)(=O)C3=CC=C(C=C3)OC [KN-93] + Nc1ncn([C@H]2C[C@H](O)[C@@H](CO)O2)c(=O)n1 [Decitabine] (partner 2 µM)
Summary of the method: as §1

KN-93 + Bortezomib = compound: CN(C/C=C/C1=CC=C(C=C1)Cl)CC2=CC=CC=C2N(CCO)S(=O)(=O)C3=CC=C(C=C3)OC [KN-93] + CC(C)C[C@H](NC(=O)[C@H](Cc1ccccc1)NC(=O)c1cnccn1)B(O)O [Bortezomib] (partner 0.002 µM)
Summary of the method: as §1

Row | Cell Line | relative viability (KN-93 + Palbociclib; first compound 0.08 µM) | relative viability (KN-93 + Palbociclib; first compound 0.253 µM) | relative viability (KN-93 + Palbociclib; first compound 2.53 µM) | relative viability (KN-93 + Palbociclib; first compound 8 µM) | relative viability (KN-93 + Foretinib; first compound 0.08 µM) | relative viability (KN-93 + Foretinib; first compound 0.253 µM) | relative viability (KN-93 + Foretinib; first compound 2.53 µM) | relative viability (KN-93 + Foretinib; first compound 8 µM) | relative viability (KN-93 + Pemetrexed; first compound 0.08 µM) | relative viability (KN-93 + Pemetrexed; first compound 0.253 µM) | relative viability (KN-93 + Pemetrexed; first compound 2.53 µM) | relative viability (KN-93 + Pemetrexed; first compound 8 µM) | relative viability (KN-93 + Decitabine; first compound 0.08 µM) | relative viability (KN-93 + Decitabine; first compound 0.253 µM) | relative viability (KN-93 + Decitabine; first compound 2.53 µM) | relative viability (KN-93 + Decitabine; first compound 8 µM) | relative viability (KN-93 + Bortezomib; first compound 0.08 µM) | relative viability (KN-93 + Bortezomib; first compound 0.253 µM) | relative viability (KN-93 + Bortezomib; first compound 2.53 µM) | relative viability (KN-93 + Bortezomib; first compound 8 µM)
1 | NCI-H1395 | 0.602 | 0.69 | 0.598 | 0.478 | 1.09 | 0.934 | 0.964 | 0.697 | 0.972 | 0.926 | 0.86 | 0.489 | 0.713 | 0.739 | 0.745 | 0.615 | – | – | – | –
2 | NCI-H1563 | – | – | – | – | 0.918 | 0.878 | 0.858 | 0.659 | 0.759 | 0.822 | 0.799 | 0.597 | – | – | – | – | 1 | 0.884 | 0.778 | 0.675
3 | NCI-H1703 | – | – | – | – | 0.351 | 0.364 | 0.352 | 0.238 | – | – | – | – | – | – | – | – | 0.381 | 0.302 | 0.418 | 0.166
4 | NCI-H1792 | 0.401 | 0.649 | 0.796 | 0.605 | – | – | – | – | 0.605 | 0.909 | 0.971 | 0.513 | 0.278 | 0.489 | 0.602 | 0.535 | – | 0.923 | 1.04 | 0.781
5 | NCI-H1793 | 0.38 | 0.311 | 0.318 | 0.253 | 0.729 | 0.799 | 0.642 | 0.287 | 0.97 | 0.899 | 1.1 | 0.528 | 0.595 | 0.494 | 0.465 | 0.43 | – | – | – | –
6 | NCI-H1944 | 0.368 | 0.328 | 0.327 | 0.243 | 0.831 | 0.835 | 0.709 | 0.557 | 0.599 | 0.598 | 0.545 | 0.57 | 0.45 | 0.414 | 0.413 | 0.395 | – | – | – | –
7 | NCI-H2170 | 0.35 | 0.48 | 0.403 | 0.338 | 0.973 | 1.23 | 0.903 | 0.892 | 0.268 | 0.302 | 0.276 | 0.252 | 0.468 | 0.501 | 0.49 | 0.436 | – | – | – | –
8 | NCI-H2228 | 0.723 | 0.97 | 1.09 | 0.165 | 0.872 | 0.891 | 0.862 | 0.506 | 0.407 | 0.383 | 0.353 | 0.252 | – | – | – | – | 1.01 | 1.18 | 1.14 | 0.817
9 | SK-MES-1 | 0.367 | 0.301 | 0.354 | 0.284 | 0.857 | 0.656 | 0.937 | 0.999 | 1.03 | 0.945 | 1.05 | 0.806 | 0.389 | 0.357 | 0.371 | 0.355 | – | – | – | –
10 | SW 900 | 0.539 | 0.592 | 0.509 | 0.471 | 0.851 | 0.942 | 1.02 | 0.762 | 0.522 | 0.517 | 0.491 | 0.47 | 0.443 | 0.427 | 0.452 | 0.517 | – | – | – | –
